Experimental data taken from patent US20080014247A1, “METAL-CONTAINING FORMULATIONS AND METHODS OF USE” (Nucryst Pharmaceuticals, priority 2006, published 2008).
In brackets after ≈: the same amount, converted by molar mass. Read-outs that look alike come from different tables or passages of the source.

Columns and labels:
[1] = Compatibility of nanocrystalline silver with excipients; assay type: physicochemical; conditions: 10% aqueous solution of excipient, 40° C. overnight
Escherichia coli = test: MIC assay (microdilution); assay type: cell-based
Enterobacter cloacae = test: MIC assay (microdilution); assay type: cell-based
[2] = test system: Mycobacterium tuberculosis H37Ra (ATCC 25177); test: microbe, parasite or virus in culture; assay type: cell-based
Pseudomonas aeruginosa = test: MIC assay (microdilution); assay type: cell-based
Streptococcus pyogenes = test: MIC assay (microdilution); assay type: cell-based; conditions: lactate solutions
Staphylococcus aureus = test: MIC assay (microdilution); assay type: cell-based; conditions: lactate solutions
Streptococcus pneumoniae = test: MIC assay (microdilution); assay type: cell-based; conditions: lactate solutions
DNBS-induced colitis = DNBS-induced colitis in rat: total IBD score; assay type: in vivo; conditions: 250 μl intracolonically once a day for five days
Excerpt: Animals: Male Sprague-Dawley rats, weighing approximately 250-300 gm were purchased from Charles River Laboratories (Raleigh, N.C.). The animals were housed under standard conditions with free access to food and water. They were acclimatized for 2-3 days before commencing the experiments. The study protocol was approved by the Institutional Animal Care and Use Committees (IACUC).
Induction of ulcerative colitis: Colitis was produced according to published methods. Animals were anesthetized by intraperitoneal injection of 75 mg/kg of ketamine plus 5 mg/kg of xylazine. A single intracolonic injection of 120 mg/ml of dinitrobenzenesulfonic acid (DNBS) (Sigma Chemicals, St. Louis, Mo.) in 250 micro liter of 50% ethanol was administered through a Tom Cat catheter (Kendall Sovereign, Mansfield, Mass.) with a closed-end tip, connected to a 1 ml syringe and placed 7 cm proximal to the anus. Lubricant was applied to the tip of the catheter before injection, to protect from mucosal injury. After instillation of DNBS, 0.5 ml of air was insufflated and the catheter was removed.
Sulfasalazine (Sigma Chemicals, St Louis, Mo.), at a concentration of 120 mg/ml for intracolonic treatment and 30 mg/ml for oral treatment was used as the reference drug in all the experiments. Sulfasalazine was first dissolved in 0.1M NaOH at a concentration about 30-fold higher than the required final concentration, and then suspended in 1.5% PVA for oral dosing and 5.7% PVA for intracolonic dosing.
One group was not treated and served as no treatment group. Treatment began one day after administration of DNBS.
Macroscopic Observations: Body weight was recorded daily and the animals were examined for their physical appearance. After five days of treatment, animals were sacrificed. The colon was excised between the ileocecal junction and rectum, and opened longitudinally. After scoring of the consistency of the stool the colon was rinsed in normal saline, examined and thickness of the colonic wall and number and size of ulcers were scored. Stool consistency was graded on a scale of 0-3: 0=normal stool, well formed pellets rigid as normal; 1=loose stool, formed pellet with moisture, soft stool keeping in stool shape; 2=loose stool, stools that have abnormal form with much moisture, softer shapeless stool; 3=watery or bloody diarrhea.
Thickness of colonic wall was graded on a scale of 0-4: 0=normal, no thickness; 1=mild thickness in lower portion of the colon; 2=moderate thickness in localized area; 3=moderate thickness extending to the central portion of the colon; 4=severe thickness in the whole colon. Colonic ulceration was graded on a scale of 0-10: 0=no ulcers; 1=one small ulcer less than 2-3 mm; 2=one large ulcer more than 2-3 mm; 3=two large ulcerations more than 2-3 mm in diameter; 4=two or more sites of ulcerations extending 1 cm along the length; 5-10=when an area of ulceration extended more than 1 cm along the length of the colon, the score increases by 1 for each additional cm of involvement. The total IBD score, obtained by the sum of the scores of colonic ulcer, colon thickness and stool consistency for each animal, was calculated for each treatment group.
Methods: Colitis was induced in rats using DNBS as described in Example 25. Animals were treated intracolonically (250 μl of the test reagents) once a day for five days. […] Methods: Colitis was induced in rats using DNBS as described in Example 25. Animals were treated intracolonically (250 μl of the test reagents) once a day for five days.

[3] = test system: Staphylococcus epidermidis; test: MIC assay (microdilution); assay type: cell-based; conditions: S. epiderm (ATCC); lactate solutions

In the case of `OCc1ccccc1` [Benzyl alcohol], the “Reaction with nanocrystalline silver” value [1] is reported as “Grey/slightly red”.
For `CCCCCCCCCCCCCCCCCCO` [Cetearyl alcohol], the “Reaction with nanocrystalline silver” value [1] was “Light brown/green/black”.
With `CCCCCCCCCCCCCCCCO` [Cetyl alcohol] the “Reaction with nanocrystalline silver” value [1] was “Grey color - no discoloration”.
In the case of `CCCCCCCCCCCCCCCCCC(=O)OCC(O)CO` (centres unmarked) [Glycerol monostearate], the “Reaction with nanocrystalline silver” value [1] is reported as “Brown discoloration”.
For `CCCCCCCCCCCCCC(=O)OC(C)C` [Isopropyl myristate], the “Reaction with nanocrystalline silver” value [1] was “Grey color - no discoloration”.
With `COC(=O)c1ccc(O)cc1` [Methylparaben] the “Reaction with nanocrystalline silver” value [1] was “Brown discoloration”.
For `CC(O)CO` (centres unmarked) [Propylene glycol], the “Reaction with nanocrystalline silver” value [1] was “Discoloration”.
In the case of `CCCOC(=O)c1ccc(O)cc1` [Propylparaben], the “Reaction with nanocrystalline silver” value [1] is reported as “Green discoloration”.
For `OO` [Sample H2O2, hydrogen peroxide], the “Reaction with nanocrystalline silver” value [1] was “Brown discoloration after drying”, the MIC (Escherichia coli; SOD and catalase +) was greater than 500 µg/mL and the MIC (Escherichia coli; SOD and catalase −) was 31 µg/mL (≈ 911 µM). For the same compound, the MIC (Enterobacter cloacae; SOD and catalase +) was greater than 500 µg/mL and the MIC (Enterobacter cloacae; SOD and catalase −) was 63 µg/mL (≈ 1850 µM).
In the case of `O=C([O-])c1ccccc1.[Na+]` [Sodium benzoate], the “Reaction with nanocrystalline silver” value [1] is reported as “White precipitate”.
With `CCCCCCCCCCCCCCCCCC(=O)O` [Stearic acid] the “Reaction with nanocrystalline silver” value [1] was “Grey color - no discoloration”.
For `CCOCCOCCO` [Transcutol, diethylene glycol monoethyl ether], the “Reaction with nanocrystalline silver” value [1] was “Grey color - no discoloration”.
For `CC[C@@H](CO)NCCN[C@@H](CC)CO` [ethambutol], the MIC ([2]; Mycobacterium tuberculosis) was 2 µg/mL (≈ 9.79 µM).
In the case of Benzalkonium chloride [BAC], the MIC (Pseudomonas aeruginosa; isolate NP220 (BAC-sensitive)) is reported as 63 µg/mL, the MIC (Pseudomonas aeruginosa; isolate NP221 (BAC-resistant)) is reported as 4000 µg/mL and the MIC (Pseudomonas aeruginosa; isolate NP222 (BAC-sensitive)) is reported as 63 µg/mL.
With Sodium parabens the “Reaction with nanocrystalline silver” value [1] was “Precipitation”.
With silver oxide [Ag2O] the MIC (Streptococcus pyogenes; S. pyog (clin. 303)) was 2 µg/mL, the MIC (Streptococcus pyogenes; S. pyog (clin. 304)) was 3 µg/mL and the MIC (Staphylococcus aureus; S. aureus (ATCC)) was 3 µg/mL. It also gave an MIC (Staphylococcus aureus; S. aureus (clin.)) of 6 µg/mL, an MIC (Escherichia coli; E. coli (ATCC), lactate solutions) of 0.8 µg/mL and an MIC (Pseudomonas aeruginosa; P. aerug (ATCC), lactate solutions) of 0.8 µg/mL. For the same compound, the MIC (Pseudomonas aeruginosa; P. aerug. (clin.), lactate solutions) was 2 µg/mL, the MIC (Streptococcus pneumoniae; S. pneumo (clin 314)) was 3 µg/mL and the MIC (Streptococcus pneumoniae; S. pneumo (clin 315)) was 2 µg/mL. The MIC [2] was 2.5 μg/ml silver, the “total IBD score” value (DNBS-induced colitis; 0.05% sonicated nanodispersion) was “but not 0.15% and 0.05%, significantly reduced” and the “total IBD score” value (DNBS-induced colitis; 0.15% sonicated nanodispersion) was “but not 0.15% and 0.05%, significantly reduced”. For the same compound, the “total IBD score” value (DNBS-induced colitis; 0.25% homogenized) was “unable to show significant reduction”, the “total IBD score” value (DNBS-induced colitis; 0.5% homogenized) was “unable to show significant reduction” and the “total IBD score” value (DNBS-induced colitis; 0.5% sonicated nanodispersion, vs placebo) was “significantly reduced the total IBD score”. For the same compound, the “total IBD score” value (DNBS-induced colitis; 1.5% sonicated nanodispersion) was “significantly reduced the total IBD score” and the MIC [3] was 2 µg/mL.
